In patent US9120768B2, “Compositions and methods for treatment of cystic fibrosis and diseases associated with aberrant protein cellular processing” (The Hospital for Sick Children, priority 2010, dated 2015):

Key:
293MSR-GT cells = test: Sensitivity of 293MSR-GT cells toward compound; conditions: compound could not be tested by YFP quenching or immunoblotting
delF508-CFTR [1] = biological target: T1, delF508-CFTR (Homo sapiens, UniProt P13569, DEL508-508); test: Short circuit current (Ussing chamber) in primary human bronchial epithelial cells; type: cell-based; parameters: primary cultures of human bronchial epithelia (HBE) obtained from transplant patients homozygous for the delF508 mutation; host or cells: primary human bronchial epithelial (HBE) cells from delF508/delF508 lung transplant patients; conditions: 10 μM, 48 hrs, HBE cells of delF508/delF508 patients, versus vehicle alone; FIGS. 5-7
T1 sequence (P13569 with tags, fused parts or gaps DEL508-508): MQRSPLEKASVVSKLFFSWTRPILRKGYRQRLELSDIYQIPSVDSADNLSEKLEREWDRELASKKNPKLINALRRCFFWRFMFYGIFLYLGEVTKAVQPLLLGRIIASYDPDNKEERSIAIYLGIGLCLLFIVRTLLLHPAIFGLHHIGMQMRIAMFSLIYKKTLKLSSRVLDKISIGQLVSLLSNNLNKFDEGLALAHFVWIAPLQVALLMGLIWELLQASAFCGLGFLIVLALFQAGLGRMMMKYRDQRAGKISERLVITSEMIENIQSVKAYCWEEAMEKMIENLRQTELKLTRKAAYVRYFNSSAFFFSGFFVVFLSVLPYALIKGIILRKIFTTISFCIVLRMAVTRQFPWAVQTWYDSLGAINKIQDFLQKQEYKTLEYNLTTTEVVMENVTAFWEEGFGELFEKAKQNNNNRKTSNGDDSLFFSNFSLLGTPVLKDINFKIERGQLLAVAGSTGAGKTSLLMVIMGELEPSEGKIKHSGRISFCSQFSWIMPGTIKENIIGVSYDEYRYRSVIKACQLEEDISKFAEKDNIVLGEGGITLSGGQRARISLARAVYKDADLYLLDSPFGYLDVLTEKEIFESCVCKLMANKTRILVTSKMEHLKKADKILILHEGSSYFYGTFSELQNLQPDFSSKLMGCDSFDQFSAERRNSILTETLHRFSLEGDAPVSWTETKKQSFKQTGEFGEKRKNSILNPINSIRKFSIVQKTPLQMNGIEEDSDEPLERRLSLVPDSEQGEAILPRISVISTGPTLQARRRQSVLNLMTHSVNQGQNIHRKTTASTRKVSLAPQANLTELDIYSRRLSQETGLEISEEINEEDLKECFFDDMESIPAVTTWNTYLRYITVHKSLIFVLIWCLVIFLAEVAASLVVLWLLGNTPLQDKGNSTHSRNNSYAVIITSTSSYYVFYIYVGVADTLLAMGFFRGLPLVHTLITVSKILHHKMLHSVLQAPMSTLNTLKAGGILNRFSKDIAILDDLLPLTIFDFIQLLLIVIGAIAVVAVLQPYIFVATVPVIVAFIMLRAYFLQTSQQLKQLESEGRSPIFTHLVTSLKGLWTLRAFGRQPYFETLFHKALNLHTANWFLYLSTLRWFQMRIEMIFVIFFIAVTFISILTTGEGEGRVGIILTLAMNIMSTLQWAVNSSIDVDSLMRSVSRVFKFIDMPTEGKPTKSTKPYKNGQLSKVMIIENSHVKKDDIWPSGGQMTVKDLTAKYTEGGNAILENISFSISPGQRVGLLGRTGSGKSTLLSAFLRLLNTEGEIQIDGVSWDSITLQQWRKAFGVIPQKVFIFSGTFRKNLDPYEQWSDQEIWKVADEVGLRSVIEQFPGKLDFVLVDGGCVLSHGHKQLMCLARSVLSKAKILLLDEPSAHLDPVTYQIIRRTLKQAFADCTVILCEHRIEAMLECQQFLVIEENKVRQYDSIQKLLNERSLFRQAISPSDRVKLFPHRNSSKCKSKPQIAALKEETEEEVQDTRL

delF508-CFTR [2] = biological target: T1, delF508-CFTR; test: Cellomics YFP quenching assay; type: cell-based; parameters: expressed in transfected cells; host or cells: HEK293 MSR GripTite (293MSR-GT) cells, also stably expressing eYFP(H148Q/I152L); conditions: 10 μM, 48 hrs, 37° C., 293MSR-GT cells, stimulated with FIG; FIG. 1
Procedure: Cellomics YFP quenching assay was performed as described previously^66. […] After 48 hrs of incubation the medium was replaced with 152 μl of chloride solution (137 mM NaCl, 2.7 mM KCl, 0.7 mM CaCl2, 1.1 mM MgCl2, 1.5 mM KH2PO4, 8.1 mM Na2HPO4, pH 7.1), in the absence or presence of FIG (25 M Forskolin, 45 μM IBMX, 50 μM Genistein) at 37° C. After 20 min incubation, 92 μl of iodide buffer (137 mM NaI, 2.7 mM KCl, 0.7 mM CaCl2, 1.1 mM MgCl2, 1.5 mM KH2PO4, 8.1 mM Na2HPO4, pH 7.1) was added (final concentration 52 mM) and the decrease in fluorescence intensity over time was recorded using the Cellomics VTI (ThermoFisher), at 30° C. […] After two days of incubation, cells were stimulated for 20 min with FIG mixture. They were then exposed to low Cl^−/high I^− medium by replacing 137 mM Na^+Cl^− with Na^+I^−, and fluorescence quenching of the cells due to Cl^−/I^− exchange (presumably via CFTR) was monitored and quantified over time by the Cellomics VTI reader.

delF508-CFTR [3] = biological target: T1, delF508-CFTR; test: Immunoblotting for delF508-CFTR maturation (band C); type: cell-based; parameters: expressed in transfected cells; host or cells: HEK293 MSR GripTite (293MSR-GT) cells, also stably expressing eYFP(H148Q/I152L); conditions: 10 μM, 48 hrs, 37° C., 293MSR-GT cells, anti-CFTR immunoblot; FIG. 2
Procedure: Protein expression and rescue of delF508-CFTR were validated by immunoblotting with anti-CFTR monoclonal antibodies (clone M3A7, Chemicon Cat.#MAB3480) as described previously^66. […] The rescue of delF508-CFTR was validated by Western blotting as described previously^66. […] Proteins were resolved on SDS-PAGE, transferred to nitrocellulose membranes and immunoblotted with anti-CFTR monoclonal antibodies (M3A7, 1 μg/ml) or anti-β-actin antibodies (1:10000). Membranes were washed with 5% Blotto, incubated with HRP-conjugated goat anti-mouse antibody (1:5000) and washed with PBST. Signal was detected with SuperSignal West Femto reagent.

inflammation = conditions: animal model, topical application; cited from earlier work
TAK1 = TAK1 (Homo sapiens, UniProt O43318); conditions: competitive with ATP; cited from earlier work
Chain of TAK1 (O43318 whole entry): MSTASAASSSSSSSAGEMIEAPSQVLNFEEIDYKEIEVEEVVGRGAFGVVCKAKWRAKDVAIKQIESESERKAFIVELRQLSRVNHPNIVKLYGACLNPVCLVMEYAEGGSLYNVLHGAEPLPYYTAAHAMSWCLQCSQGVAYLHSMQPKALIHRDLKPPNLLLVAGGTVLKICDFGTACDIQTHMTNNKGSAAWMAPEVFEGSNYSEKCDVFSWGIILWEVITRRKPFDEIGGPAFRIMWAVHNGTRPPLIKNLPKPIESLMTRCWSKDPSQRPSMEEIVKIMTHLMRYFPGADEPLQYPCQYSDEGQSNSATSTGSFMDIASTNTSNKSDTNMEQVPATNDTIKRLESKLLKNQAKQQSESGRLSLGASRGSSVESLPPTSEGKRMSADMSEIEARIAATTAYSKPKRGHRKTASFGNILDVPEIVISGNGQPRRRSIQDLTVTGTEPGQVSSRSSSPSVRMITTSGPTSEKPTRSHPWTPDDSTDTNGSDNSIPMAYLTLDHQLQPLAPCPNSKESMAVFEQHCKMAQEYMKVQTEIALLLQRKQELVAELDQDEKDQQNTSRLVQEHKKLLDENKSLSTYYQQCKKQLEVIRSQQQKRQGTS
Chain of TAK1 (Q15750 whole entry partner): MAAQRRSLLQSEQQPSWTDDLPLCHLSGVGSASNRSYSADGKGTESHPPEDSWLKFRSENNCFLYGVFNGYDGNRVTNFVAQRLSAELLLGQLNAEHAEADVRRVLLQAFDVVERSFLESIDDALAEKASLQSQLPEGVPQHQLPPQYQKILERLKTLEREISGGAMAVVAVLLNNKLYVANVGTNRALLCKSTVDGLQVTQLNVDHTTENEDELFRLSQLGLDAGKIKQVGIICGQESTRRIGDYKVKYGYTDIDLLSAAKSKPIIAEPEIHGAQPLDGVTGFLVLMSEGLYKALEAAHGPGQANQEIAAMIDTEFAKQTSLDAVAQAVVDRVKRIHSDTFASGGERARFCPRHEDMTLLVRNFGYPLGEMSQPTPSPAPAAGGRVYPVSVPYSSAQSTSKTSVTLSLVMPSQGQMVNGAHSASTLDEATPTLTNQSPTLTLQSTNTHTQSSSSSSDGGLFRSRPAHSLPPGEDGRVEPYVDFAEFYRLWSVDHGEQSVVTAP

ERK2 = ERK2 (Homo sapiens, UniProt P28482); conditions: cited from earlier work
Chain of ERK2 (P28482 whole entry, species assumed): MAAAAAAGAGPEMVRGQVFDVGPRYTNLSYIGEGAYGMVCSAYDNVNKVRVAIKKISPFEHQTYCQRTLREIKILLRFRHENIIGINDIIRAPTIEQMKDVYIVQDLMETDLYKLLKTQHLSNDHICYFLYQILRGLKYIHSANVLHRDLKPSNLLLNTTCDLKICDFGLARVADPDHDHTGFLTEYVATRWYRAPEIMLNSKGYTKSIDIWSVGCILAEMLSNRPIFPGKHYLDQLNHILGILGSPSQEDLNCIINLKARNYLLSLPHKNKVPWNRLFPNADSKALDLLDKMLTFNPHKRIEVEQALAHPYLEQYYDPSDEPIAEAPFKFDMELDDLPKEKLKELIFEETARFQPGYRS

Compound	sensitivity of 293MSR-GT cells toward compound (293MSR-GT cells)	delF508-CFTR chloride channel activity (short-circuit current) (delF508-CFTR [1])	delF508-CFTR activity (fluorescence quenching due to Cl-/I- exchange) (delF508-CFTR [2])	appearance of mature delF508-CFTR protein (band C) (delF508-CFTR [3])	prevention of inflammation (inflammation)	TAK1 inhibition (TAK1)	ERK2 enzyme activity inhibition (ERK2)
Cc1[nH]c(/C=C2\C(=O)Nc3ccccc32)c(C)c1CCC(=O)O [SU6668, 3-[2,4-dimethyl-5-[(Z)-(2-oxo-1H-indol-3-ylidene)methyl]-1H-pyrrol-3-yl]propanoic acid]	increased sensitivity	enhanced activity of the mutant CFTR					
Cc1c[nH]c(/C=C2\C(=O)Nc3ccccc32)c1CCC(=O)O [SU5402, 3-[4-methyl-2-[(Z)-(2-oxo-1H-indol-3-ylidene)methyl]-1H-pyrrol-3-yl]propanoic acid]		enhanced activity of the mutant CFTR	restores delF508-CFTR activity to a level that is similar to that obtained with corr-4-a	led to the appearance of the mature band C, similar to that seen with corr-4-a			
COc1cc(O)c2c(c1)/C=C/C[C@H](O)[C@H](O)C(=O)/C=C\C[C@H](C)OC2=O [(5Z)-7-oxozeaenol, (3S,5Z,8S,9S,11E)-3,4,9,10-tetrahydro-8,9,16-trihydroxy-14-methoxy-3-methyl-1H-2-benzoxacyclotetradecin-1,7(8H)-dione]		enhanced activity of the mutant CFTR	restores delF508-CFTR activity to a level that is similar to that obtained with corr-4-a	led to the appearance of the mature band C, similar to that seen with corr-4-a	effectively prevent inflammation in an animal model	irreversibly inhibits TAK1	inhibit ERK2 enzyme activity
